Data as given in patent US20150329498A1, “IRAK INHIBITORS AND USES THEREOF” (Nimbus Iris, Inc., priority 2014, published 2015).

What was measured:
[1] = test system: LPS induced TNF alpha production; assay: Inhibition of LPS induced TNFα production in vivo; conditions: female Lewis rats, dosed PO 2 hours prior to LPS IV, serum TNFα after 1 hr; minimum efficacious dose
Protocol: Selected compounds were tested in vivo in female Lewis rats for LPS induced TNF alpha production by dosing PO for 2 hours prior to LPS administration IV, followed by bleeding after 1 hr for measurement of TNFα produced in serum using ELISA (Biosource). […] Compounds having an activity designated as “A” provided a MED<5.0 mg/kg; compounds having an activity designated as “B” provided a MED of 5.0-20 mg/kg; compounds having an activity designated as “C” provided a MED of 20-50 mg/kg; compounds having an activity designated as “D” provided a MED of >50 mg/kg

[2] = test system: TNFα production in THP-1 cells; assay: LPS induced TNFα production assay in THP-1 cells; type: cell-based; conditions: Homo sapiens, 300 ng/mL LPS, measured at 5 hours
Protocol: (§1) Provided compounds were also assayed in an LPS (Lipopolysaccharide) or R848 (TLR-7 agonist) induced cytokine (TNFα and IL8) production assay in THP-1 cells, human white blood cells (hWBC), and human whole blood. The exemplary protocol for this assay in THP-1 cells was as follows below.
(§2) THP-1 cells from ATCC (TIB-202) were cultured in RPMI Medium 1640 (Invitrogen, Cat No. A10491-01), 10% fetal bovine serum (Invitrogen, Cat No. 10099141, Lot No. 8172882) containing 100 U/mL Penicillin, 100 μg/mL streptomycin (Invitrogen, Cat No. 15140-122), and 50 uM 2-Mercaptoethanol (Invitrogen, Cat No. 21985023). LPS-EK ultra pure (Invivogen, Cat No. tlrl-peklps) was used to induce IL8 and TNFα production, that was detected in the cell culture supernatant by IL8 HTRF kit (Cisbio, Cat No. 62IL8PEB) and TNFα HTRF kit (Cisbio, Cat No. 62TNFPEB), as per manufacturer instructions. Cells were cultured in 96 well assay plates at 100,000 cells per well, and compounds diluted in final 0.3% DMSO were pre-incubated with cells for 1 hour prior to stimulation with 300 ng/mL LPS. Cytokine production in cell supernatant was measured at 5 hours for TNFα production, and at 16 hours for IL8 production and assessment of cell viability.
(§3) The compound numbers correspond to the compound numbers in Table 1. Compounds having an activity designated as “A” provided an IC50≦0.5 μM; compounds having an activity designated as “B” provided an IC50 of 0.5-5.0 μM; compounds having an activity designated as “C” provided an IC50>5.0 μM. “NA” stands for “not assayed.”

[3] = test system: IL8 production in THP-1 cells; assay: LPS induced IL8 production assay in THP-1 cells; type: cell-based; conditions: Homo sapiens, 300 ng/mL LPS, measured at 16 hours
Protocol: as §1, §2, §3

[4] = test system: IFNα production in human whole blood; assay: R848 induced IFNα production in human whole blood; type: cell-based; conditions: 0.2 uM R848, 20 hours
Protocol: Compounds of the present invention were also studied in in vitro cytokine production assays. Exemplary protocols follow.
Human whole blood and hWBC assays: Human whole blood was diluted by combining whole blood with no serum RPMI medium at a ratio of 1:1. 180 ul/well of the diluted whole blood/well was added to a 96 well plate. For WBC assay 100,000 cells/well were seeded in a 96-well plate with a volume of 100 ul/well. To make the compound master plate 9 ul of 30 mM compound solution was added into the wells in the assigned rows, then serial solutions with 4x dilutions were made in DMSO. That is, 9 uL of 100% DMSO were added into each of the rest wells and 3 uL of compound solution was taken from the one-step higher concentration solution and mixed well with the DMSO. An intermediate compound dilution plate was made by mixing 4 uL of the compound solution from the compound master plate with 196 uL of no serum RPMI medium. hWBC or human whole blood was treated for 0.5 hour by adding 20 uL/well of the compound and the control solutions from the intermediate compound plate to the cell plate. 80 uL/well or 20 uL/well of stimulant were then added to the human whole blood or hWBC respectively. […] The supernatants were then collected and cytokine levels were measured with ELISA for TNFα (R&D Systems, #DY210) and IFNα (R&D Systems, #41100-2) per manufacturer's instruction.

Row | Structure (SMILES) | MED (mg/kg) [1] | IC50 [2] [nM] | IC50 [3] [nM] | IC50 [4] [nM]
1 | N#Cc1ccc2ncnc(N[C@H]3CC[C@H](N4CCOCC4)CC3)c2c1 [Compound I-3, 4-(((1r,4r)-4-morpholinocyclohexyl)amino)quinazoline-6-carbonitrile] | C (MED of 20-50 mg/kg) | ≤ 500 | ≤ 500 | 250 to 1000
2 | N#Cc1ccc2ncnc(N[C@H]3CC[C@H](N4CCC5(CC4)CC5)CC3)c2c1 [Compound I-7, 4-(((1r,4r)-4-(6-azaspiro[2.5]octan-6-yl)cyclohexyl)amino)-quinazoline-6-carbonitrile] | A (MED<5.0 mg/kg) | ≤ 500 | ≤ 500 | 250 to 1000
